Non-standard residues stand in square brackets, D forms with d. Residues, ends and D or L forms follow the SMILES beside them. No end group written: not given here. *: point of attachment. Desaminotyrosyl = O=C(CCc1ccc(O)cc1)*; Agmatine = N=C(N)NCCCCN*; Nle = CCCC[C@H](N)C(=O)O; Orn = NCCC[C@H](N)C(=O)O; Abu = CC[C@H](N)C(=O)O
Experiments:
GH-deficient children = settings: subcutaneously twice a day; cited from earlier work
[1] = system: superfused rat pituitary cell system; test: GH release in superfused rat pituitary cell system (in vitro); type: cell-based; settings: 0.1-0.5 nM, 3 min administration, superfused rat pituitary cells
Description: The compounds of the present invention were tested both in vitro and in vivo. The levels of GH released in vivo by the synthetic peptides, following their intravenous (i.v.) or subcutaneous (sc.) injection in rats, are shown in Tables 2 and 3 respectively. The potencies of the peptides, based on 4-point assays, were calculated in all the Examples of this specification, by the factorial analyses of Bliss and Marks with 95% confidence limits.
Growth hormone releasing activity in vitro is assayed by using a superfused rat pituitary cell system as described in S. Vigh and A. V. Schally, Peptides 5, Suppl: 241-347, 1984, which is incorporated by reference herein. Each peptide, hGH-RH (1-29)NH2 (as control) and the synthetic peptide hGH-RH analogs of the present invention, is administered for 3 minutes (1 ml. perfusate) at various concentrations as shown below. Fractions of 1 ml are coIlected and the GH content in each is determined by RIA.

Compound | share of GH-deficient children in whom linear growth was promoted (GH-deficient children) | Potency relative to hGH-RH(1-29)NH2 = 1 (GH release in vitro) [1]
hGH-RH(1-29)NH2 (YADAIFTNSYRKVLGQLSARKLLQDIMSR-NH2; UniProt P01286 32-60, looked up, fragment) | approximately 50% | –
CCCC[C@H](NC(=O)[C@@H](NC(=O)[C@H](CC(=O)O)NC(=O)[C@H](CCC(N)=O)NC(=O)[C@H](CC(C)C)NC(=O)[C@H](CC(C)C)NC(=O)[C@H](CCCN)NC(=O)[C@H](CCCNC(=N)N)NC(=O)[C@H](C)NC(=O)[C@H](CO)NC(=O)[C@H](CC(C)C)NC(=O)[C@H](CCC(N)=O)NC(=O)[C@H](CC)NC(=O)[C@H](CC(C)C)NC(=O)[C@@H](NC(=O)[C@H](CCCCN)NC(=O)[C@H](CCCNC(=N)N)NC(=O)[C@H](Cc1ccc(O)cc1)NC(=O)[C@H](CO)NC(=O)[C@H](CC(N)=O)NC(=O)[C@@H](NC(=O)[C@H](Cc1ccccc1)NC(=O)[C@@H](NC(=O)[C@H](C)NC(=O)[C@H](CC(=O)O)NC(=O)[C@H](C)NC(=O)CCc1ccc(O)cc1)[C@@H](C)CC)[C@@H](C)O)C(C)C)[C@@H](C)CC)C(=O)N[C@@H](CO)C(=O)NCCCCNC(=N)N [Example II, (Dat^1,Abu^15,Orn^21,Nle^27,Agm^29)hGH-RH(1-29)] (Desaminotyrosyl-ADAIFTNSYRKVL[Abu]QLSAR[Orn]LLQDI[Nle]S-Agmatine) | – | 6.4
CCCC[C@H](NC(=O)[C@@H](NC(=O)[C@H](CC(=O)O)NC(=O)[C@H](CCC(N)=O)NC(=O)[C@H](CC(C)C)NC(=O)[C@H](CC(C)C)NC(=O)[C@H](CCCCN)NC(=O)[C@H](CCCNC(=N)N)NC(=O)[C@H](C)NC(=O)[C@H](CO)NC(=O)[C@H](CC(C)C)NC(=O)[C@H](CCC(N)=O)NC(=O)[C@H](CC)NC(=O)[C@H](CC(C)C)NC(=O)[C@@H](NC(=O)[C@H](CCCN)NC(=O)[C@H](CCCNC(=N)N)NC(=O)[C@H](Cc1ccc(O)cc1)NC(=O)[C@H](CO)NC(=O)[C@H](CC(N)=O)NC(=O)[C@@H](NC(=O)[C@H](Cc1ccccc1)NC(=O)[C@@H](NC(=O)[C@H](C)NC(=O)[C@H](CC(=O)O)NC(=O)[C@H](C)NC(=O)CCc1ccc(O)cc1)[C@@H](C)CC)[C@@H](C)O)C(C)C)[C@@H](C)CC)C(=O)N[C@@H](CO)C(=O)NCCCCNC(=N)N [Example III, (Dat^1,Orn^12,Abu^15,Nle^27,Agm^29)hGH-RH(1-29)] (Desaminotyrosyl-ADAIFTNSYR[Orn]VL[Abu]QLSARKLLQDI[Nle]S-Agmatine) | – | 3.8
CCCC[C@H](NC(=O)[C@@H](NC(=O)[C@H](CC(=O)O)NC(=O)[C@H](CCC(N)=O)NC(=O)[C@H](CC(C)C)NC(=O)[C@H](CC(C)C)NC(=O)[C@H](CCCN)NC(=O)[C@H](CCCNC(=N)N)NC(=O)[C@H](C)NC(=O)[C@H](CO)NC(=O)[C@H](CC(C)C)NC(=O)[C@H](CCC(N)=O)NC(=O)[C@H](CC)NC(=O)[C@H](CC(C)C)NC(=O)[C@@H](NC(=O)[C@H](CCCN)NC(=O)[C@H](CCCNC(=N)N)NC(=O)[C@H](Cc1ccc(O)cc1)NC(=O)[C@H](CO)NC(=O)[C@H](CC(N)=O)NC(=O)[C@@H](NC(=O)[C@H](Cc1ccccc1)NC(=O)[C@@H](NC(=O)[C@H](C)NC(=O)[C@H](CC(=O)O)NC(=O)[C@H](C)NC(=O)CCc1ccc(O)cc1)[C@@H](C)CC)[C@@H](C)O)C(C)C)[C@@H](C)CC)C(=O)N[C@@H](CO)C(=O)NCCCCNC(=N)N [Example I, (Dat^1,Orn ^12,21,Abu^15,Nle^27,Agm^29)hGH-RH(1-29)] (Desaminotyrosyl-ADAIFTNSYR[Orn]VL[Abu]QLSAR[Orn]LLQDI[Nle]S-Agmatine) | – | 5.9

— US5792747A, “Highly potent agonists of growth hormone releasing hormone” (The Administrators of the Tulane Educational Fund, priority 1995, dated 1998)
